Measurements taken from ChEMBL document CHEMBL4842329 (Eur J Med Chem, 2021).

Columns and labels:
[1] = target: T1, Sodium-dependent serotonin transporter (Homo sapiens, UniProt P31645)
Description: Displacement of [125I]RTI55 binding from human wild type SERT

[2] = target: T1, Sodium-dependent serotonin transporter; assay: biochemical; format: cell-based, HEK293
[3] = target: T1, Sodium-dependent serotonin transporter; format: cell-based, COS7
Description: Inhibition of human wild type SERT expressed in COS7 cells assessed as inhibition of [3H]5HT uptake measured for 40 hrs by scintillation counting analysis

T1 sequence (P31645 whole entry): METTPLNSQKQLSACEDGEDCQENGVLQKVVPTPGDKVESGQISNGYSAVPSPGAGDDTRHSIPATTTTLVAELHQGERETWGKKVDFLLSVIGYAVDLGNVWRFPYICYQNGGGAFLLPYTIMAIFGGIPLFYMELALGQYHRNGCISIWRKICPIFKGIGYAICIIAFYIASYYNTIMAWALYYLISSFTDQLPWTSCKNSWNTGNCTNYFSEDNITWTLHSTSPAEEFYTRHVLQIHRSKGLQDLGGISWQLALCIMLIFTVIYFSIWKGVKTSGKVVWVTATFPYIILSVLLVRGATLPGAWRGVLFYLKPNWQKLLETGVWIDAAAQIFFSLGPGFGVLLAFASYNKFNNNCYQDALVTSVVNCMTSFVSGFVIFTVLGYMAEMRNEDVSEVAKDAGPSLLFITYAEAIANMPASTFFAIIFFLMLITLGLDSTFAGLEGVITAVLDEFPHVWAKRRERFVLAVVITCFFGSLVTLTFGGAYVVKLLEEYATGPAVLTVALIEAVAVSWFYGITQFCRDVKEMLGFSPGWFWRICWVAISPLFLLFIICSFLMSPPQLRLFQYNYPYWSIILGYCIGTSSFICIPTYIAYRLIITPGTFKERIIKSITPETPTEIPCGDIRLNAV

With `Brc1ccc([C@@H]2CCNC[C@H]2COc2ccc3c(c2)OCO3)cc1` the Ki [1] was 1.07 nM.

Molecule `CNCCC(Oc1ccc(I)cc1F)c1ccccc1` (stereo not given) has a Ki [2] of 23 nM.

`COCCCC/C(=N\OCCN)c1ccc(Cl)cc1` was tested, and the Ki [2] was 61 nM.

`CNCCC(Oc1ccc(Br)cc1)c1ccccc1` (stereo not given) was tested, and the Ki [2] was 24 nM.

Molecule `COCCCC/C(=N\OCCN)c1ccc(I)cc1` has a Ki [2] of 15 nM.

Work on `CNCCC(Oc1ccc(Cl)cc1F)c1ccccc1` (stereo not given) yielded a Ki [2] of 52 nM.

For `COCCCC/C(=N\OCCN)c1ccc(Br)cc1`, the Ki [2] was 23 nM.

`COCCCC/C(=N\OCCN)c1ccc(Cl)c(Cl)c1` gave a Ki [2] of 9 nM.

In the case of `CNCCC(Oc1ccc(Br)c(F)c1)c1ccccc1` (stereo not given), the Ki [2] is reported as 19 nM.

With `COC(=O)C1CCC2CC(O)C1N2c1ccccc1` (stereo not given) the IC50 [3] was 15 nM.

`COCCCC/C(=N\OCCN)c1ccc(F)cc1` showed a Ki [2] of 1620 nM.

Work on `CNCCC(Oc1cccc(F)c1)c1ccccc1` (stereo not given) yielded a Ki [2] of 349 nM.

Work on `CNCCC(Oc1cccc(Cl)c1)c1ccccc1` (stereo not given) yielded a Ki [2] of 66 nM.

`CNCCC(Oc1ccc(Cl)cc1)c1ccccc1` (stereo not given) showed a Ki [2] of 55 nM.

In the case of `CNCCC(Oc1ccccc1)c1ccccc1` (stereo not given), the Ki [2] is reported as 1460 nM.

With `CNCCC(Oc1ccc(I)cc1)c1ccccc1` (stereo not given) the Ki [2] was 14 nM.

`CNCCC(Oc1ccc(Cl)c(Cl)c1)c1ccccc1` (stereo not given) was tested, and the Ki [2] was 5 nM.

With `COC(=O)C1CCC2CC(O)C1N2c1ccc(Cl)c(Cl)c1` (stereo not given) the IC50 [3] was 5650 nM.

With `COCCCC/C(=N\OCCN)c1ccc(Cl)cc1F` the Ki [2] was 202 nM.

Molecule `COCCCC/C(=N\OCCN)c1ccc(Br)cc1F` has a Ki [2] of 137 nM.

Work on `CNCCC(Oc1ccc(Br)cc1F)c1ccccc1` (stereo not given) yielded a Ki [2] of 41 nM.

Molecule `COCCCC/C(=N\OCCN)c1ccc(Br)c(F)c1` has a Ki [2] of 21 nM.

Molecule `CNCCC(Oc1ccc(F)cc1)c1ccccc1` (stereo not given) has a Ki [2] of 543 nM.

`CNCCC(Oc1ccc(Cl)c(F)c1)c1ccccc1` (stereo not given) showed a Ki [2] of 31 nM.

Molecule `COCCCC/C(=N\OCCN)c1ccc(Cl)c(F)c1` has a Ki [2] of 62 nM.
